Experiments:
[1] = tested on: pAKT (S473); test: In vivo PK/PD study, U87MG tumor xenograft, pAKT (S473); settings: U87MG tumor-bearing xenograft mice, 50 mg/kg po
Procedure: (§1) PC3 cells are cultured at 37° C. in a 5% CO2 incubator using Hams F12 K medium. Ten million (10^7) cells are injected subcutaneously to the right flank region of athymic male mice (Harlan, age: 6-7 weeks, weight: about 20 g). Tumor bearing mice are randomized when the tumor volume reaches about 250 mm^3 and three mice are used per each time point. Test compounds of formula (I) are typically formulated in 40% HPCD in 1×PBS, pH 7.4 or in 10% Ethanol/40% Solutol/50% 50 mM aq. methanesulfonic acid and dosed orally at 50 mg/kg single dose (dose volume—10 mL/kg). Plasma and tumor samples are collected at 0 (vehicle control animals), 1, 4 and 24 hours post dosing. Blood is drawn (retro orbital) to a tube containing 0.2% EDTA for plasma collection. […] Tumor and plasma drug concentrations are measured for PK analysis using LC-MS.
(§2) Snap frozen tumor samples are pulverized in a mortar (Belart) containing liquid nitrogen and tumor powder is stored at −80° C. until analysis. […] The detection for pAKT is based on chemiluminescence and pS6RP is based on absorbance. […]
(§3) In vivo pharmacokinetic/pharmacodynamic (PK/PD) studies were carried out in a similar manner using U87MG tumor cells (glioma cancer cell line with a PTEN null mutation) and the corresponding tumor-bearing xenograft mice, and compounds of the invention were determined to be active in this assay. […]

[2] = molecular target: PI3 kinase isoform γ (Homo sapiens, UniProt P48736); test: PI3 Kinase TR-FRET assay, isoform γ; format: biochemical; settings: read-out: inhibition of PI3 kinase isoform γ, IC50
Procedure: (§4) The ability of compounds of the invention to inhibit PI3K activity was determined in a homogeneous TR-FRET assay using a PI3K assay kit (Millipore, USA; cat #33-016) according to manufacturer's instructions. PI3-Kinases (isoforms α, β, γ and δ) catalyze the phosphorylation of phosphatidylinositol, PIP2 to PIP3 in the presence of ATP and Mg^2+. The PIP3 product is detected by displacement of biotin-PIP3 from an energy transfer complex consisting of Europium labeled anti-GST monoclonal antibody, a GST-tagged PH domain, biotinylated PIP3 and Streptavidin-APC. Excitation of Europium in the complex results in an energy transfer to the APC and a fluorescence emission at 665 nm. The PIP3 product displaces biotin-PIP3 from the complex resulting in a loss of energy transfer and thus a decrease in signal.
(§5) To test for the ability of compounds to inhibit the activity of PI3Kα (wild-type), exemplary compounds of formula (I) were dissolved in DMSO and directly distributed into 384-well plates at a volume of 0.5 μL. 14.5 μL of P110/P85α/PIP2 mixture in buffer (obtained from the Millipore kit) containing MgCl2 (40 mM) and DTT (5 mM) was added to compound wells and incubated for 60 minutes at room temperature. P110/P85α was expressed in SF9 insect cells and purified nickel column extraction. Five ng of wild-type P110/P85α was used in the assay. The kinase reaction was started by the addition of ATP. The assay concentrations of both PIP2 and ATP were 10 μM. The reaction mixture was incubated for 30 minutes at room temperature and was terminated by the addition of stop mix and detection mix. Fluorescence was measured at 615 and 665 nm upon excitation at 340 nm in a Victor™ V5 fluorometer (Perkin Elmer, USA). The fluorescence emission ratio at 665 to 615 nm, proportional to the kinase activity, was plotted against the compound concentration to generate dose-response curves and IC50 values were determined using GraphPad Prism® 5 software.
(§6) The activity of PI3 kinase isoforms β, γ and δ were assayed in a similar manner to the assay protocol described above for PI3Kα, by substituting the appropriate p110/p85 isoform for the p110α/p85α. Compounds of formula (I) caused inhibition of PI3 kinase isoforms β, γ and δ as determined by these assays. For example, the compounds of Examples 3 and 21 each caused inhibition of PI3 kinase isoform β with IC50 values<500 nM. The compounds of Examples 3, 7, 21, 47, 48 and 49 each caused inhibition of PI3 kinase isoform γ with IC50 values<500 nM. The compounds of Example 3, 7, 47, 48, and 49 caused inhibition of PI3 kinase isoform δ with IC50 values<1 μM.

[3] = tested on: T47D cells; test: XTT assay for cell viability, T47D cells; format: cell-based; settings: Homo sapiens, read-out: inhibition of T47D cell proliferation, IC50
Procedure: Using a commercial kit from Sigma Aldrich (Catalog #X34251) and following its protocol, PC3 cells in the log phase of growth were employed and seeded at an optimal density of 1000 cell/well on to 96 well plates and incubated for 24 hours followed by the addition of compounds of formula (I) in serial dilutions. Compound dilutions were made in DMSO. The cells were incubated with the compounds of formula (I) for 96 hours and XTT tetrazolium dye (Sigma, USA) was subsequently added and incubated at 37° C. After the color formation, absorbance was measured at 465 nm in a Spectramax® Gemini spectrophotometer. EC50 values were calculated using a sigmoidal dose response curve fit in GraphPad Prism® v5 software. The tested compounds of formula (I) which caused inhibition of PC3 cell proliferation as determined by this assay protocol are shown in Table 2.
XTT assays for cell viability were also determined in U87MG, BT474 cells and T47D cells, in a similar manner to the protocol described above. The compounds cause inhibition of U87MG, BT474 and T47D cell proliferation as determined by these assays. For example, the compounds of Examples 3 and 7 caused inhibition of U87MG, BT474 and T47D cell proliferation with IC50 values<600 nM.

[4] = tested on: pS6RP; test: In vivo PK/PD study, U87MG tumor xenograft, pS6RP; settings: U87MG tumor-bearing xenograft mice, 50 mg/kg po
Procedure: as §1, §2, §3

[5] = molecular target: PI3 kinase isoform δ (Homo sapiens, UniProt O00329); test: PI3 Kinase TR-FRET assay, isoform δ; format: biochemical; settings: read-out: inhibition of PI3 kinase isoform δ, IC50
Procedure: as §4, §5, §6

PI3 kinase isoform δ, sequence (O00329 whole entry, canonical isoform): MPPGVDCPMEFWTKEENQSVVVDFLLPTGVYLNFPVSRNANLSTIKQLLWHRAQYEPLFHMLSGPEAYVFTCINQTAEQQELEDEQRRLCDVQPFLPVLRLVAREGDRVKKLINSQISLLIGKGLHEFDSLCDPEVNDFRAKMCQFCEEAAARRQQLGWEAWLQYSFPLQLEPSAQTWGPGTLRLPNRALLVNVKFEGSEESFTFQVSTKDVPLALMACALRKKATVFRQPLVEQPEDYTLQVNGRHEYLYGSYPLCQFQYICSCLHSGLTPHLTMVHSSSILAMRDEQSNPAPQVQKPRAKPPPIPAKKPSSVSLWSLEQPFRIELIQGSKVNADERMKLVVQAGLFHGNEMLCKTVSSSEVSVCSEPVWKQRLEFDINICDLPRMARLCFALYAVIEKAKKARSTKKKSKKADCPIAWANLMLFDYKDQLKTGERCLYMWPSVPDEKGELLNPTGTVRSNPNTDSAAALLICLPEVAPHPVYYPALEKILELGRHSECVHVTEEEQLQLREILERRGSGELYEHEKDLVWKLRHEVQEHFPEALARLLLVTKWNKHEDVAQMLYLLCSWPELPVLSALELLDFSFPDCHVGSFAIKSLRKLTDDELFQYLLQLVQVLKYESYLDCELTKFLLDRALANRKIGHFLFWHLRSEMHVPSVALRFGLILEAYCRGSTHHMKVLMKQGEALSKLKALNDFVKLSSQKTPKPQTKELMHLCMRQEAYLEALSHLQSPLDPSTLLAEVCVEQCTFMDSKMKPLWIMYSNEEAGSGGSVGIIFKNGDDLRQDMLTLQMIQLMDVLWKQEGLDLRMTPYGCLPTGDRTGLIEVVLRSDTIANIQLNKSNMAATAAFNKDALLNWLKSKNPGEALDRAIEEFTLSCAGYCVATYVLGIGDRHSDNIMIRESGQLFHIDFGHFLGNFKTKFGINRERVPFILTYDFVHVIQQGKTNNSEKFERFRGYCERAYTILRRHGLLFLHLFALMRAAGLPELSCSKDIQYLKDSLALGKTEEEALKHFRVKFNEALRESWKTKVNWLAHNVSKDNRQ
PI3 kinase isoform δ, sequence (P27986 whole entry partner, canonical isoform): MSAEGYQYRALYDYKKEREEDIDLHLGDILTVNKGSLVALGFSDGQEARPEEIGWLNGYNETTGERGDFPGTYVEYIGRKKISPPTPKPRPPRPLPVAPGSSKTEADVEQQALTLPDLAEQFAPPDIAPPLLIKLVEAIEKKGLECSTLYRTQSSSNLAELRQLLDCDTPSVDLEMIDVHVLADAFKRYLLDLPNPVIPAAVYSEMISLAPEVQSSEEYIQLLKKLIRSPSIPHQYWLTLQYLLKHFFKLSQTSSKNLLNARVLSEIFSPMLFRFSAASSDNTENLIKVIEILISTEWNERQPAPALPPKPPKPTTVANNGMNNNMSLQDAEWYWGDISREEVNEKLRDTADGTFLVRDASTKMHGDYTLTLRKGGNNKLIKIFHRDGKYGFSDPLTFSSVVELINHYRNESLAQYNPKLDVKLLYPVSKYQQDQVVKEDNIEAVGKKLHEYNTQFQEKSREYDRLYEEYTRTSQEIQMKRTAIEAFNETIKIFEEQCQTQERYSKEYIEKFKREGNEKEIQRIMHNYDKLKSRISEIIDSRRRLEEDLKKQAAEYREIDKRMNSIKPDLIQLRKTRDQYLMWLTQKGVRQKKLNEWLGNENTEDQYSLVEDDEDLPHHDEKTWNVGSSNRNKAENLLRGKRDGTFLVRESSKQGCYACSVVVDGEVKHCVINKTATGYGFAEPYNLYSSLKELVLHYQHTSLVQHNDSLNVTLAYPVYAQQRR
PI3 kinase isoform γ, sequence (P48736 whole entry, the tested form may be a part, canonical isoform): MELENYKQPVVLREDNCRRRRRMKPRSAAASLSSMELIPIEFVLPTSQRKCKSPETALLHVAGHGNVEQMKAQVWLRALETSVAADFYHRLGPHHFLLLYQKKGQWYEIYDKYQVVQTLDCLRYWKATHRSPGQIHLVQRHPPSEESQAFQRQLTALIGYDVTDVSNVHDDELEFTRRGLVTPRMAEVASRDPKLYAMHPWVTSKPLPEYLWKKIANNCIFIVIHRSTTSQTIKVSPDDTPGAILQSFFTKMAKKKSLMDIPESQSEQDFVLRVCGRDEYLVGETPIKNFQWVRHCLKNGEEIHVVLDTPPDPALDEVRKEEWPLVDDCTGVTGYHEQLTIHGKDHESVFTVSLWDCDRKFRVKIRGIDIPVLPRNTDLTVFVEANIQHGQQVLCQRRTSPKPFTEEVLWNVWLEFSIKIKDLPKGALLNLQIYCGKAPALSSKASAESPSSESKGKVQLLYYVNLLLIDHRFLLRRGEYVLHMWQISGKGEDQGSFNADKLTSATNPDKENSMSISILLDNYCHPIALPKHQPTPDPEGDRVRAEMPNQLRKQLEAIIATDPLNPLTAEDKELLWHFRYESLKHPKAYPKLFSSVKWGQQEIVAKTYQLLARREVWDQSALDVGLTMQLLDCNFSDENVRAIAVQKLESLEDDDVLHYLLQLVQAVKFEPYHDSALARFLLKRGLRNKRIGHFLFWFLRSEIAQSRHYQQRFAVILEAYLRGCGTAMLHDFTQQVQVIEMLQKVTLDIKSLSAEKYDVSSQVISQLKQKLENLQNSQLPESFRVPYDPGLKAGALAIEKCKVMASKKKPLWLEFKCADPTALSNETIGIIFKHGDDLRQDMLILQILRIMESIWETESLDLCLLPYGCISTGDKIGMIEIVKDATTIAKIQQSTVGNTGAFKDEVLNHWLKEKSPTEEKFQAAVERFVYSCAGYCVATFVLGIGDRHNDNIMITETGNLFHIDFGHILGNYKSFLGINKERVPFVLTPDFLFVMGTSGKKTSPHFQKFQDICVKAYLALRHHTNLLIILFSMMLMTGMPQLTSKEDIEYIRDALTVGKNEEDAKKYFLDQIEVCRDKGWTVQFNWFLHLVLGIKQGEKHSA

Row | Structure (SMILES) | suppression of pAKT (S473) [1] | IC50 [2] | IC50 [3] | suppression of pS6RP [4] | IC50 [5]
1 | CC(=O)Nc1cccc(-c2cnc3c(N4CCOCC4)nc(-c4cnc(N)nc4)nc3c2)c1 [Example 3, N-(3-(2-(2-Aminopyrimidin-5-yl)-4-morpholinopyrido[3,2-d]pyrimidin-7-yl)-phenyl)acetamide] | suppression | < 500 nM | < 600 nM | suppression | < 1000 nM
2 | Nc1ncc(-c2nc(N3CCOCC3)c3ncc(-c4cccc(NC(=O)C5CC5)c4)cc3n2)cn1 [Example 7, N-(3-(2-(2-Aminopyrimidin-5-yl)-4-morpholinopyrido[3,2-d]pyrimidin-7-yl)-phenyl)cyclopropanecarboxamide] | – | < 500 nM | < 600 nM | – | < 1000 nM
3 | N#CC1(C(=O)Nc2cccc(-c3cnc4c(N5CCOCC5)nc(-c5cnc(N)nc5)nc4c3)c2)CC1 [Example 61, N-(3-(2-(2-amino-pyrimidin-5-yl)-4-morpholinopyrido[3,2-d]pyrimidin-7-yl)phenyl)-1-cyanocyclopropane-carboxamide] | suppression | – | – | suppression | –

From US9145411B2, “Substituted amino-pyrimidine derivatives” (Asana Biosciences, LLC, priority 2012, dated 2015)
